According to ChEMBL document CHEMBL5291721, “A preclinical secondary pharmacology resource illuminates target-adverse drug reaction associations of marketed drugs” (Nat Commun, 2023):

Tests used:
[1] = target: T1, Alpha-1A adrenergic receptor (Homo sapiens, UniProt P35348); type: functional, cell-based
T1 sequence (P35348 whole entry): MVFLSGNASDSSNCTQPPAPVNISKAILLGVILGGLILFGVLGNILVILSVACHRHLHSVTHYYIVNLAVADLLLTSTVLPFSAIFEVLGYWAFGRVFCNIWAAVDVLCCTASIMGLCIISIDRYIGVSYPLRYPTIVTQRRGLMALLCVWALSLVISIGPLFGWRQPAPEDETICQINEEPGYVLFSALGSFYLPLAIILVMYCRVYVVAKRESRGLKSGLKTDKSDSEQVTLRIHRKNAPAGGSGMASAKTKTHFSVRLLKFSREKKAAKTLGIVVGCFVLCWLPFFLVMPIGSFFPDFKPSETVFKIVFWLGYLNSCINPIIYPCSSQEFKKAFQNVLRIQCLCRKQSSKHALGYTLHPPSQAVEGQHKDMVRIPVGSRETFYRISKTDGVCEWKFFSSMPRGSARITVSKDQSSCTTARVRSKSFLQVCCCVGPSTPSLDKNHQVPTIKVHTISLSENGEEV

[2] = target: Vascular endothelial growth factor receptor 2 (Homo sapiens, UniProt P35968); type: functional
[3] = target: T2, Amine oxidase [flavin-containing] A (Homo sapiens, UniProt P21397); type: functional
T2 sequence (P21397 whole entry): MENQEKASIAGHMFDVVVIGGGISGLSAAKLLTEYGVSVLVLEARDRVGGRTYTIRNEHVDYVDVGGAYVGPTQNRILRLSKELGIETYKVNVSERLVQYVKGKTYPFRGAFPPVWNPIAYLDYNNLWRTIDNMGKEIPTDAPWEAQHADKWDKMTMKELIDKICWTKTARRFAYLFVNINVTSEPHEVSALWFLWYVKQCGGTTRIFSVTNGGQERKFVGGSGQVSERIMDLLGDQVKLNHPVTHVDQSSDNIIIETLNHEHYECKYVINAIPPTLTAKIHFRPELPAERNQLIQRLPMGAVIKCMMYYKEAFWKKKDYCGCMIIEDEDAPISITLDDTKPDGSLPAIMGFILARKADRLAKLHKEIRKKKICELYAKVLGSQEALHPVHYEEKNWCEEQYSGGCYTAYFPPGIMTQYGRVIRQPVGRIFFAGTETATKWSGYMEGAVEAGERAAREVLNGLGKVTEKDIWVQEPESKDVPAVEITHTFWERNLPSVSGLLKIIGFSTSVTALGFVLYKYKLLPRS

[4] = target: cGMP-inhibited 3',5'-cyclic phosphodiesterase 3A (Homo sapiens, UniProt Q14432); type: functional
[5] = target: Prostaglandin G/H synthase 1 (Homo sapiens, UniProt P23219); type: functional
Vasopressin V2 receptor = Vasopressin V2 receptor (Homo sapiens, UniProt P30518)
[6] = target: T3, Alpha-2B adrenergic receptor (Homo sapiens, UniProt P18089)
T3 sequence (P18089 whole entry): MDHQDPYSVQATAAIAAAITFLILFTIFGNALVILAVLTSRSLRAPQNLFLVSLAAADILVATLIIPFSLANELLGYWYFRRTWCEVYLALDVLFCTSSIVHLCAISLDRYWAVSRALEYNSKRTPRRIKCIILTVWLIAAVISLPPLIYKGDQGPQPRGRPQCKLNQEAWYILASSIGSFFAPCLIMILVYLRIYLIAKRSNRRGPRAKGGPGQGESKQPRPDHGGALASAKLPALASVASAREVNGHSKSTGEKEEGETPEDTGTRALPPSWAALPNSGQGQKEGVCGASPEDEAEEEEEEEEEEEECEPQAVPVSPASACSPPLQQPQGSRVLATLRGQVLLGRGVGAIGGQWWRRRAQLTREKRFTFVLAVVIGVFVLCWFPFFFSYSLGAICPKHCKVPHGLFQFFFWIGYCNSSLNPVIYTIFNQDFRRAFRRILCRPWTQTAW

[7] = target: 5-hydroxytryptamine receptor 2A (Homo sapiens, UniProt P28223); type: functional, cell-based
[8] = target: Sodium-dependent serotonin transporter (Homo sapiens, UniProt P31645)
Note: assay procedure not described here.

Chain of Vasopressin V2 receptor (P30518 whole entry): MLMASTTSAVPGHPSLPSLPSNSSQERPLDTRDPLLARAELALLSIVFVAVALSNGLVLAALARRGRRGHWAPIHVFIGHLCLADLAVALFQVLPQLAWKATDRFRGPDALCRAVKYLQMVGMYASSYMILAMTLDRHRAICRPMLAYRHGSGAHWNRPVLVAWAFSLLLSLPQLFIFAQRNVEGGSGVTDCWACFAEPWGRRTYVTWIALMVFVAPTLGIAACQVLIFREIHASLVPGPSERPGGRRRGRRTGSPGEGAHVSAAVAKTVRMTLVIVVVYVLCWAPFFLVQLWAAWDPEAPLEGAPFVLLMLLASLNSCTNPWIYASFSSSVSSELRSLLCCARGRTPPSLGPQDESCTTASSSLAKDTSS
Chain of Prostaglandin G/H synthase 1 (P23219 whole entry): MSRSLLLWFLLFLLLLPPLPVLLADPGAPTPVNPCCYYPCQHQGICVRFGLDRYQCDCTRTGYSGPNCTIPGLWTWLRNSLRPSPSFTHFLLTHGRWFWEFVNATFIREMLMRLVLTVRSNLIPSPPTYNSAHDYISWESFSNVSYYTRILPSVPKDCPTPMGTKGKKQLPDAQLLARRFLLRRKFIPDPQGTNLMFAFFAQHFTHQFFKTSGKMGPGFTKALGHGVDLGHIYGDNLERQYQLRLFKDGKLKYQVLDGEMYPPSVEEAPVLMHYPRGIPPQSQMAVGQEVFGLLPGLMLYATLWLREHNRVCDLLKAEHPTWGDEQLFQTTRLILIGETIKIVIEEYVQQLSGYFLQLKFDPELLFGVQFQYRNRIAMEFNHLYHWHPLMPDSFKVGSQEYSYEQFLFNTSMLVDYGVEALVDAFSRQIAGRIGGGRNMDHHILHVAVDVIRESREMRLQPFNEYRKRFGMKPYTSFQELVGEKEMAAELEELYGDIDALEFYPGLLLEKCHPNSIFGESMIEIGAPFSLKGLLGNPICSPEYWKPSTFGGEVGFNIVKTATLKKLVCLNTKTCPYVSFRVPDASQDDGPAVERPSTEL
Chain of Vascular endothelial growth factor receptor 2 (P35968 whole entry): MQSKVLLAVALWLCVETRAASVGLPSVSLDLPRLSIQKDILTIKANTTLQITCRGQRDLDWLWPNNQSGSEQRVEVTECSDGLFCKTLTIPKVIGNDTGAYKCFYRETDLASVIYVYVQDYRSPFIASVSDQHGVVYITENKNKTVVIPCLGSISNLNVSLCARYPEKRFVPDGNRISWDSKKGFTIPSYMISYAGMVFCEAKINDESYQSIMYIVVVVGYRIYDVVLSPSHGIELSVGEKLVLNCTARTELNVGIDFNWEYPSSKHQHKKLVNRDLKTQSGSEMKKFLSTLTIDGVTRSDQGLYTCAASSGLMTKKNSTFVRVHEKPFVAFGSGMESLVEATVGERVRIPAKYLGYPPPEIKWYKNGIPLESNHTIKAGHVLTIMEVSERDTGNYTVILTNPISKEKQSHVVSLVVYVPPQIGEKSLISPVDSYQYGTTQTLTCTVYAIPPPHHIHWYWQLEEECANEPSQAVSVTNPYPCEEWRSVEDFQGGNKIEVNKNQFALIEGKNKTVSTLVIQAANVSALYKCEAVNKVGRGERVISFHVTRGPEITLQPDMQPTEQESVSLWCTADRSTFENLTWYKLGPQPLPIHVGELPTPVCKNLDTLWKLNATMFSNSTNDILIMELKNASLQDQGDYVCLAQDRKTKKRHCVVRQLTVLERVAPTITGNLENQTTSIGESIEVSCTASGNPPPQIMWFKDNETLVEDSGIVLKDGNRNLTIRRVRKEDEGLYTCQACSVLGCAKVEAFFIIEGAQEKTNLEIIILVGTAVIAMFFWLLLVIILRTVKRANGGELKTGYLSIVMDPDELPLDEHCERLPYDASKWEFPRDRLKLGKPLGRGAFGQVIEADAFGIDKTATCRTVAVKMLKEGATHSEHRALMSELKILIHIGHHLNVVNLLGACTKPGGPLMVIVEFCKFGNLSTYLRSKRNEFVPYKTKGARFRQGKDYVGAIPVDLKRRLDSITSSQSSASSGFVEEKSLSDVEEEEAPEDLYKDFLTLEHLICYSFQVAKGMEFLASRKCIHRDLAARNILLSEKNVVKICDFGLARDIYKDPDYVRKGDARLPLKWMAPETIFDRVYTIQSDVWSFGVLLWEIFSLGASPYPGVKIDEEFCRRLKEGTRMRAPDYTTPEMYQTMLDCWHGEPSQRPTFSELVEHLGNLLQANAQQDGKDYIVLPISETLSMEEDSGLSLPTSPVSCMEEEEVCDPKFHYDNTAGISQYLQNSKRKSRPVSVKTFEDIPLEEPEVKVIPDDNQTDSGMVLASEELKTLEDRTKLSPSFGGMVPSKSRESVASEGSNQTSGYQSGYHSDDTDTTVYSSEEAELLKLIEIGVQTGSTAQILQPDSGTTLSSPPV
Chain of Sodium-dependent serotonin transporter (P31645 whole entry): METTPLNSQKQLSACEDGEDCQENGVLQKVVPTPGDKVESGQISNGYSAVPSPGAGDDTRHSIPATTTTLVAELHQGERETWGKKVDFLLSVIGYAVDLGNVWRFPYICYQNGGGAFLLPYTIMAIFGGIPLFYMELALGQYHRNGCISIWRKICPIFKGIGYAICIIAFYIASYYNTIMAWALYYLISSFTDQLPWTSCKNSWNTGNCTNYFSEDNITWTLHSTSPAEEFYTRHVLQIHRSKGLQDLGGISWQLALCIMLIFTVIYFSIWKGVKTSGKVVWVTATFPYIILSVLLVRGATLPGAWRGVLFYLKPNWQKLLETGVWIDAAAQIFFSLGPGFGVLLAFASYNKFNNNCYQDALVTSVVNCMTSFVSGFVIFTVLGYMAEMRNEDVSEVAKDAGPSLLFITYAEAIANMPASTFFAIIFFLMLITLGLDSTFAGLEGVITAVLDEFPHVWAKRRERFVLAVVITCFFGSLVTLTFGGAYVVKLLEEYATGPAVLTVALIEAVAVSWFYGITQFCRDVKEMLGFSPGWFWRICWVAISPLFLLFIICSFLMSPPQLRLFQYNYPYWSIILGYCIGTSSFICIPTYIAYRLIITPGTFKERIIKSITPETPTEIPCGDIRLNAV
Chain of 5-hydroxytryptamine receptor 2A (P28223 whole entry): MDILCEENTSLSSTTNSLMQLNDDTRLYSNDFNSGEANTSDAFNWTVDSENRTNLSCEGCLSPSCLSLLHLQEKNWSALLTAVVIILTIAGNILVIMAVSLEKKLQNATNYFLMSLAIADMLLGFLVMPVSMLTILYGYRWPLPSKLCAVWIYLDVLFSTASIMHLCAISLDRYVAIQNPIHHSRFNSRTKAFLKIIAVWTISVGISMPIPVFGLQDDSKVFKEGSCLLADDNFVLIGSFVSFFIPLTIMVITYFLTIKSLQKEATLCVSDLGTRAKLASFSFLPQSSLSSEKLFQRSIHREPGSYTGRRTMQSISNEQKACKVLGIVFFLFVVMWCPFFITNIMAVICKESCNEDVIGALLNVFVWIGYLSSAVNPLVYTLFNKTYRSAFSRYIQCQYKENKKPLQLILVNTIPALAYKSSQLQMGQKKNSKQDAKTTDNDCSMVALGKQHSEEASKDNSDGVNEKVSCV
Chain of cGMP-inhibited 3',5'-cyclic phosphodiesterase 3A (Q14432 whole entry): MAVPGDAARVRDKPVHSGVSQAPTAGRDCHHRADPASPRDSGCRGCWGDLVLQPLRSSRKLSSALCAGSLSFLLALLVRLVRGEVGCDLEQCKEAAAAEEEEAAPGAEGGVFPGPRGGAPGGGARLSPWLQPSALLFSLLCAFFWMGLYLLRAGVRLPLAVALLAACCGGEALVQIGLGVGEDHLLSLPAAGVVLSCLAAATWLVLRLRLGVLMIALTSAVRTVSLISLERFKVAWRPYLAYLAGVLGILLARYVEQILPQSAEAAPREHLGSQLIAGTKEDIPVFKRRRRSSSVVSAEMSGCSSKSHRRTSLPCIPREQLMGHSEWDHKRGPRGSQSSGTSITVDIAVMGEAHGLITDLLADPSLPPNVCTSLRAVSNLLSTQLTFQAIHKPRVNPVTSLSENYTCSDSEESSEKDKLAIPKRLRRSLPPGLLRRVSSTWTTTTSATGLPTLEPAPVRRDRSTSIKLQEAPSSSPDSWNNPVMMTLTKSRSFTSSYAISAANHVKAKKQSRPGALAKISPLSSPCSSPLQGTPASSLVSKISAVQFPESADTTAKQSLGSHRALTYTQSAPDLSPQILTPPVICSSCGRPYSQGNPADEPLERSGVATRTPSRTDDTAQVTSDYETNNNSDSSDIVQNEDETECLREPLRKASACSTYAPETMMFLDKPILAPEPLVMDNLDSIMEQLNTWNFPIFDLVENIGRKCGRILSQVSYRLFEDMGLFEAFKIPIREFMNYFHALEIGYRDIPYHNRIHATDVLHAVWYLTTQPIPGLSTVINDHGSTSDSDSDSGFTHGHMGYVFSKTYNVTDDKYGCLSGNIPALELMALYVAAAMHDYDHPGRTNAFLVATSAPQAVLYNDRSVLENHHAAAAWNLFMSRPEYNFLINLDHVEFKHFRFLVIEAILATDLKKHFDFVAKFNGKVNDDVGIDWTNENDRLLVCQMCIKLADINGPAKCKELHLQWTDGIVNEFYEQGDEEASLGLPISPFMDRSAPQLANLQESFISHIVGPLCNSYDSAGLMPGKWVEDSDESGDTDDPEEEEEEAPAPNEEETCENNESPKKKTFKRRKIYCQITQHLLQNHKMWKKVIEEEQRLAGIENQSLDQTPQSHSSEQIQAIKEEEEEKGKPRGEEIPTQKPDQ

AC50 (Vasopressin V2 receptor) [µM]	AC50 [6] [µM]	AC50 [7] [µM]	AC50 [8] [µM]	Structure (SMILES)	AC50 [1] [µM]	AC50 [2] [µM]	AC50 [3] [µM]	AC50 [4] [µM]	AC50 [5] [µM]
–	–	–	–	C[C@]12CC[C@@H]3c4ccc(O)cc4CC[C@H]3[C@@H]1C[C@@H](O)[C@@H]2O [ESTRIOL]	> 30	> 30	> 30	> 30	12
–	–	–	–	Cc1cc(C#N)cc(C)c1Oc1nc(Nc2ccc(C#N)cc2)nc(N)c1Br [ETRAVIRINE]	> 3	–	> 30	> 30	20.4
–	–	–	–	O=C(O)c1cc(O)ccc1O [GENTISIC ACID]	> 30	> 30	> 30	> 30	> 30
–	–	–	–	CCC1=C(C)CN(C(=O)NCCc2ccc(S(=O)(=O)NC(=O)N[C@H]3CC[C@H](C)CC3)cc2)C1=O [GLIMEPIRIDE]	> 30	> 30	> 30	> 30	> 30
–	–	–	–	N[C@@H](C(=O)N[C@@H]1C(=O)N2C(C(=O)O)=C(Cl)CC[C@H]12)c1ccccc1 [LORACARBEF ANHYDROUS]	> 30	–	> 30	> 30	> 30
> 30	> 10	> 30	> 30	CN1C(C(=O)Nc2ccccn2)=C(O)c2sc(Cl)cc2S1(=O)=O [LORNOXICAM]	–	–	–	–	–
> 10	–	–	–	Clc1ccc(C(c2ccccc2Cl)C(Cl)Cl)cc1 (centres undefined) [MITOTANE]	–	–	–	–	–
> 30	–	> 30	> 30	Cc1nc([N+](=O)[O-])cn1-c1ccc([N+](=O)[O-])cc1 [NITREFAZOLE]	–	–	–	–	–
–	–	–	–	CC(C)(S)[C@@H](N)C(=O)O [PENICILLAMINE]	> 30	> 30	> 30	> 30	–
–	–	–	–	C=C[C@H]1C[N@@]2CC[C@H]1C[C@H]2[C@H](O)c1ccnc2ccc(OC)cc12 [QUININE]	–	> 30	> 30	> 30	> 10
–	–	–	–	CCC(=O)NCC[C@@H]1CCc2ccc3c(c21)CCO3 [RAMELTEON]	> 30	–	> 30	> 30	> 30
> 30	17	> 30	> 30	COc1ccccc1OCC(O)CN1CCN(CC(=O)Nc2c(C)cccc2C)CC1 (centres undefined) [RANOLAZINE]	–	–	–	–	–
–	–	–	–	CCCCCCOc1nsnc1C1=CCCN(C)C1 [XANOMELINE]	–	> 30	–	> 30	> 30
> 10	> 30	> 10	> 10	Nc1ccn([C@H]2CC[C@@H](CO)O2)c(=O)n1 [ZALCITABINE]	–	–	–	–	–
> 10	> 10	> 10	> 10	NS(=O)(=O)Cc1noc2ccccc12 [ZONISAMIDE]	–	–	–	–	–

Structure (SMILES)	AC50 (Vasopressin V2 receptor) [µM]	AC50 [6] [µM]	AC50 [7] [µM]	AC50 [8] [µM]	AC50 [1] [µM]	AC50 [2] [µM]	AC50 [3] [µM]	AC50 [4] [µM]	AC50 [5] [µM]
C[N+]1(C)CCC(OC(=O)C(O)(c2ccccc2)C2CCCC2)C1 (centres undefined) [GLYCOPYRRONIUM BROMIDE]	> 30	–	–	–	–	–	–	> 30	–
O=P1(NCCCl)OCCCN1CCCl (centres undefined) [IFOSFAMIDE]	> 30	–	–	–	–	–	–	–	–
CC1(C)NC(=O)N(c2ccc([N+](=O)[O-])c(C(F)(F)F)c2)C1=O [NILUTAMIDE]	> 30	> 30	> 30	> 30	> 3	–	> 30	> 30	> 30
COc1cc(NC(C)CCCN)c2ncccc2c1 (centres undefined) [PRIMAQUINE]	> 30	–	–	–	–	> 30	–	22.5	3.95
COCCCN1CCC(NC(=O)c2cc(Cl)c(N)c3c2OCC3)CC1 [PRUCALOPRIDE]	–	> 30	> 30	> 30	> 30	–	> 30	> 30	23.6
O=C(O[C@H]1C[C@H]2CC[C@@H](C1)[N+]21CCCC1)C(O)(c1ccccc1)c1ccccc1 [TROSPIUM]	> 30	> 30	> 30	> 30	–	–	–	–	–
